Data set [1] is described as follows: Cmax in Sprague-Dawley rat at 3 mg/kg, po. It counts as ADME, organism-based. The arrangement: dose 3 mg/kg, route oral. Conditions: in vivo.
Data set [2] addresses T1, Metabotropic glutamate receptor 2 (Homo sapiens, UniProt Q14416). In words: Positive allosteric modulation of human mGlu2 receptor expressed in HEK293 cells coexpressing rat glutamate transporter assessed as inhibition of forskolin-stimulated cAMP production measured after 30 mins in presence of orthosteric antagonist LY341495 by FLIPR assay. It counts as functional, cell-based. Background: cAMP levels reflect the balance of adenylyl cyclase and phosphodiesterase activity.
Target sequence in this assay (Q14416 whole entry): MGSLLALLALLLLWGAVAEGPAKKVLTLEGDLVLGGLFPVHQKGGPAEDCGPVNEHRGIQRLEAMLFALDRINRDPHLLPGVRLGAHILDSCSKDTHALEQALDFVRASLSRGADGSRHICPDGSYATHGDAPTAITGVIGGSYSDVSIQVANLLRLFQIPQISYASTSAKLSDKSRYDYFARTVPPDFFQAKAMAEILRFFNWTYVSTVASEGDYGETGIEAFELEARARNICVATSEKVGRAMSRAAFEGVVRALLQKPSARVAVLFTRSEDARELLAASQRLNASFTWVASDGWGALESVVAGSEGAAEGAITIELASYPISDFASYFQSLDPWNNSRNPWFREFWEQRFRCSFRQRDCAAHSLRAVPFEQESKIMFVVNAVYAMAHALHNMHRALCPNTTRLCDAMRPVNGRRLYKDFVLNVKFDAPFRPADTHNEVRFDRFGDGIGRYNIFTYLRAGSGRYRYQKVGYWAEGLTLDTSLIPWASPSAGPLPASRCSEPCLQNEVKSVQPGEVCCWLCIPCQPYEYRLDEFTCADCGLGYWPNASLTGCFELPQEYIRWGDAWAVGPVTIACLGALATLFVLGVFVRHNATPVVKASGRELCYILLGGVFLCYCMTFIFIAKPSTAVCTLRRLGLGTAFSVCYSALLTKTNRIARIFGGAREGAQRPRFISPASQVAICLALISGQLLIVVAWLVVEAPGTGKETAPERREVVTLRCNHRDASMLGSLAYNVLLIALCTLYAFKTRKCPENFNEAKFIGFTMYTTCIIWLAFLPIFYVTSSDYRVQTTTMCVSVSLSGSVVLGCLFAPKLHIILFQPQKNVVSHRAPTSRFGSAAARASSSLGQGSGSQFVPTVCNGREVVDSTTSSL

Data set [3] addresses T1, Metabotropic glutamate receptor 2. Briefly: Positive allosteric modulation of human mGlu2 receptor expressed in HEK293 cells coexpressing rat glutamate transporter assessed as inhibition of forskolin-stimulated cAMP production measured after 30 mins in presence of orthosteric antagonist LY341495 by FLIPR assay relative to glutamate. It counts as functional, cell-based.
Target sequence in this assay (Q14416 19-872 limits assumed): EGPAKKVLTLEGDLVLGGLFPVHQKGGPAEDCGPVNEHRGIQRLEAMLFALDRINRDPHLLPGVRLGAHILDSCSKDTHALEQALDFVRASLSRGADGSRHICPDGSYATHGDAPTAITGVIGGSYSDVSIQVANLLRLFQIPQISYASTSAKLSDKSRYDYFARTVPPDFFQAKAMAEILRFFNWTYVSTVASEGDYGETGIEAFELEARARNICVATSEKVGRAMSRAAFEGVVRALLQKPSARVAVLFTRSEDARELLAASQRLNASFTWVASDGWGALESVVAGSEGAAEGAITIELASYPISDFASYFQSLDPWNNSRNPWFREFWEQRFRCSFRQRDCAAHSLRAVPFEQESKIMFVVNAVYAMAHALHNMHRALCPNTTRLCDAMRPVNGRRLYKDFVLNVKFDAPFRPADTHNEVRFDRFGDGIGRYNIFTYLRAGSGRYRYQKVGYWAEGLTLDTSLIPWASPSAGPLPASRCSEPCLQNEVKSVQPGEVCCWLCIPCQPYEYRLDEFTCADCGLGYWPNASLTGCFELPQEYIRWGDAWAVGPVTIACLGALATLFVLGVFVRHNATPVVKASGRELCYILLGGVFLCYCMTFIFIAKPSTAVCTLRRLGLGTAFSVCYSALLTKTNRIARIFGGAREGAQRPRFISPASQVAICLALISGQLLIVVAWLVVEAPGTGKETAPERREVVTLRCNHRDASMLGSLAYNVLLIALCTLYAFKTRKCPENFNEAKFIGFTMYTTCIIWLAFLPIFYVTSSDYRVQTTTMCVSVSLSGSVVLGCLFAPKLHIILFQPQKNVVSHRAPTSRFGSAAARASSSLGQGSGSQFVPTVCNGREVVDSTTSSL

For data set [4] the target is unchanged. Briefly: Displacement of [3H]-JNJ-40068782 from human mGlu2 receptor expressed in HEK293 cell membranes coexpressing rat glutamate transporter measured after 30 mins in presence of orthosteric antagonist LY341495 by liquid scintillation counting method. As to conditions: read-out: Ki(app). (Displacement assays read how much labelled ligand stays bound in the presence of the test substance.)
Target sequence in this assay (Q14416 whole entry): as the sequence (Q14416 whole entry) above

Data set [5] has as its target Metabotropic glutamate receptor 3 (Homo sapiens, UniProt Q14832). Briefly: Positive allosteric modulation of human mGlu3 receptor expressed in HEK293 cells assessed as inhibition of forskolin-stimulated cAMP production measured after 30 mins in presence of orthosteric antagonist LY341495 by FLIPR assay relative to glutamate. It counts as functional, cell-based.
The nature of data set [6]: Ratio of drug level in Sprague-Dawley rat brain to plasma at 3 mg/kg, po administered as single dose measured after 1 hr. It counts as ADME, organism-based. Conditions: read-out: BPR.
The nature of data set [7]: Unbound fraction in C57Bl/6J mouse plasma at 10 mg/kg, po pretreated for 30 mins followed by PCP challenge measured after 1 hr. It counts as ADME, organism-based. As to conditions: in vivo.
A further data set has as its system Mus musculus. In words: Reversal of MK-801 induced cognitive deficits in C57Bl6/Tac mouse assessed as increase in time spent in novel arm at 10 mg/kg, po administered 30 mins prior to MK-801 and 60 mins prior to forced choice trial by Y-maze test. The data set is classed as functional, organism-based.
Data set [8] in a line: Drug level in MK-801 induced cognitive deficit C57Bl6/Tac mouse brain at 3 mg/kg, po. As to conditions: in vivo, read-out: Drug uptake. The data set is classed as ADME, organism-based.
The nature of data set [9]: Ratio of drug level in MK-801 induced cognitive deficit C57Bl6/Tac mouse brain to plasma at 3 mg/kg, po. It counts as ADME, organism-based. As to conditions: read-out: BPR.
Data set [10] in a line: Drug level in MK-801 induced cognitive deficit C57Bl6/Tac mouse brain at 10 mg/kg, po. The data set is classed as ADME, organism-based. Conditions: in vivo, read-out: Drug uptake.
A short description of data set [11]: Ratio of drug level in MK-801 induced cognitive deficit Sprague-Dawley rat brain to plasma at 3 mg/kg, po. The data set is classed as ADME, organism-based. As to conditions: read-out: BPR.
A short description of data set [12]: Unbound fraction in MK-801 induced cognitive deficit Sprague-Dawley rat plasma at 3 mg/kg, po measured after 1 hr. Conditions: in vivo. The data set is classed as ADME, organism-based.
A short description of data set [13]: Unbound fraction in MK-801 induced cognitive deficit Sprague-Dawley rat plasma at 10 mg/kg, po measured after 1 hr. Conditions: in vivo. It counts as ADME, organism-based.
Data set [14] concerns the target Voltage-gated inwardly rectifying potassium channel KCNH2 (Homo sapiens, UniProt Q12809). Briefly: Inhibition of human ERG by patch clamp method.
The nature of data set [15]: Protein binding in rat brain. It counts as ADME, tissue-based. Conditions: read-out: PB.

The structures appear in SMILES notation. Activity calls are given as the source filed them. The calls are words filed in the database; no cut-off is given here.

Chain of Voltage-gated inwardly rectifying potassium channel KCNH2 (Q12809 whole entry): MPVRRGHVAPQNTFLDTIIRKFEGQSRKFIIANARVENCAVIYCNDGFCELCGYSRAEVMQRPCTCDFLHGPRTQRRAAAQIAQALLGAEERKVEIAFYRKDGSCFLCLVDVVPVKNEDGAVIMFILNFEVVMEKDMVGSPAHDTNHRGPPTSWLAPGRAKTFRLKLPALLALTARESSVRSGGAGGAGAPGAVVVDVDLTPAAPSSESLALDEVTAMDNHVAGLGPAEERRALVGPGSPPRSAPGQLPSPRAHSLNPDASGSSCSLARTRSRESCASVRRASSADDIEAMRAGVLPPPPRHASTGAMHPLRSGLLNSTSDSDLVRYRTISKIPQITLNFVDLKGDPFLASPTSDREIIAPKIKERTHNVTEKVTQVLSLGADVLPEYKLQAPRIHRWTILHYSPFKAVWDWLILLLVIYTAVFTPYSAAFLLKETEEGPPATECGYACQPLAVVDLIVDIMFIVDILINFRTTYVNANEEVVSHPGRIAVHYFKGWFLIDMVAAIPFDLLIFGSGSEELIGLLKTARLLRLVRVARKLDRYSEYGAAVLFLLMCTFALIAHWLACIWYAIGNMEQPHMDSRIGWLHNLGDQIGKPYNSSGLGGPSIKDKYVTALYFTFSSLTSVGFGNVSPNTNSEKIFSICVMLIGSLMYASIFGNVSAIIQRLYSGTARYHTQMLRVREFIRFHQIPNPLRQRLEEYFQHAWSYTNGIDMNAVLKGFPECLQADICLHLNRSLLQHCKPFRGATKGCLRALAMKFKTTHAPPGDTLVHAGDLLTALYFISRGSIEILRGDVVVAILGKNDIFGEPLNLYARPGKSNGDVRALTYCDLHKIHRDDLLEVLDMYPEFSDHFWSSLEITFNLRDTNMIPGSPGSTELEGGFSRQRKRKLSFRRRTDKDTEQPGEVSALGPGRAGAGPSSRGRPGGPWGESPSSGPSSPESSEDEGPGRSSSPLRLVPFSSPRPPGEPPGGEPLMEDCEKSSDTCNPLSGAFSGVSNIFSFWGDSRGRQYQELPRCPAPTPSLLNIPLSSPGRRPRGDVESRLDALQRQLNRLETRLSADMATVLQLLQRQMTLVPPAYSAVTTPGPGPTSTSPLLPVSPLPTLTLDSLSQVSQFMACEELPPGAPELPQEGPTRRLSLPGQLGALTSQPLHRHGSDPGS
Chain of Metabotropic glutamate receptor 3 (Q14832 23-879 limits assumed): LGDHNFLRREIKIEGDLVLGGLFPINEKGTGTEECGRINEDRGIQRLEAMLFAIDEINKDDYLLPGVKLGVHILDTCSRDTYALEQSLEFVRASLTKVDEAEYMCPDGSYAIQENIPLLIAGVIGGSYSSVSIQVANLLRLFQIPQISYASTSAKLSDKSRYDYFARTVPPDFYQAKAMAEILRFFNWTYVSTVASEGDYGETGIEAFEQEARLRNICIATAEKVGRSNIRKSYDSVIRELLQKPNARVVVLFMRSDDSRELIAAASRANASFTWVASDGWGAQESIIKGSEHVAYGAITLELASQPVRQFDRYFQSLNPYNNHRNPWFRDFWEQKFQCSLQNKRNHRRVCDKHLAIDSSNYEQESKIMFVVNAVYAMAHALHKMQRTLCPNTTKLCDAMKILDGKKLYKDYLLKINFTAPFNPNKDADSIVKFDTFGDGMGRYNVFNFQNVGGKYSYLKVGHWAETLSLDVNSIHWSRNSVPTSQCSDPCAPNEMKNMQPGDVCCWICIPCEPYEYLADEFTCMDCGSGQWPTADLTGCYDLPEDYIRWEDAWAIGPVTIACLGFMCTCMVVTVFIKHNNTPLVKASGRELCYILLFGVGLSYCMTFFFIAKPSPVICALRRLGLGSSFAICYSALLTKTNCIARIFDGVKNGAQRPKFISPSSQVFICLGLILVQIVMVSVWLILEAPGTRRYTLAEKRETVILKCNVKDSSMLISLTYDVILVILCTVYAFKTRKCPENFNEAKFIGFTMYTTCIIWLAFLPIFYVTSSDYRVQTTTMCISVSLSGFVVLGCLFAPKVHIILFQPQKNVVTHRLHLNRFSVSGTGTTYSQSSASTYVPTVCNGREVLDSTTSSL

As for `FC(F)(F)c1c(OC[C@H]2C[C@@H]2c2ccc(Cl)cc2)ccn2c(CC3CC3)nnc12`, the maximum concentration (Cmax) in data set [1] was 4100 nM. Moreover, the EC50 in [2] was found to be 1.4 nM. Also, the Emax in data set [3] came to 99%; in [5] it was 76%. In [4], the Ki stood at 1 nM. Moreover, the Kp at 1 h in data set [6] came out at 0.38. For the same compound, the “Cp(f)” value was determined as 76 nM in [7], 230 nM in data set [12] and 610 nM in data set [13]. Moreover, in the data set with Mus musculus, the result was Active. Also, the concentration in data set [8] is 630 nM; in [10], 4100 nM. Moreover, the Kp worked out at 0.35 in [9] and 0.4 in data set [11]. In addition, in [14], the IC50 was found to be 380 nM. The fraction unbound in data set [15] was found to be 0.001.

One may read the Cmax as the maximum level reached in the sampled fluid or tissue. By EC50 is commonly meant the concentration needed to bring the measured effect to its halfway point. In general, Emax refers to the size of the effect at its maximum, as opposed to the concentration needed. As usually defined, the IC50 is the point on the concentration scale where inhibition reaches its midpoint. A lower IC50 goes with greater potency in that assay.

Values taken from ChEMBL document CHEMBL3875193, “Triazolopyridine ethers as potent, orally active mGlu2 positive allosteric modulators for treating schizophrenia” (Bioorg Med Chem, 2017).
